pIC50: −log10 of the molar value. Where a SMILES comes first, the peptide text is derived from it. [ ]: non-standard residue; d: D form. The star is where a group is joined. Dolaproine = CO[C@@H]([C@@H]1CCCN1)[C@@H](C)C(=O)O; Dil = CC[C@H](C)[C@H](NC)[C@@H](CC(=O)O)OC; X1 = C[C@@H](N*)[C@@H](O)c1ccccc1; NMeV = CN[C@H](C(=O)O)C(C)C
Key:
[1] = test system: HCT116 colorectal cancer flank tumors; assay: Efficacy of Compound 5 in a HCT116 colorectal xenograft model (Example N); assay type: in vivo, nude mice; conditions: 1, 5 and 10 mg/kg IP QDx4
Protocol: Mice were administered intraperitoneal (IP) doses of vehicle, 1, 5, or 10 mg/kg Compound 5.

[2] = Tissue pharmacokinetics of Compound 2 in a mouse model (MMAE in tumor, muscle, bone marrow); assay type: in vivo, athymic nude mice bearing HCT116 tumors; conditions: single IP 0.5 mg/kg MMAE or 3 mg/kg Compound 2; 4, 24, 48 h; LCMS
Protocol: When xenografts reached a minimal volume of 300 mm^3, mice were administered a single intraperitoneal injection of 0.5 mg/kg MMAE or 3 mg/kg Compound 2 prepared in a vehicle of 5% mannitol in citrate. Tumor, quadriceps muscle and bone marrow samples were collected from fed, anesthetized mice at 4, 24 and 48 hours after compound administration. MMAE concentrations in tissues were determined via LCMS.
A 75 μL volume of acetonitrile:formic acid (1000:1, v:v) containing internal standard (MMAE-D8) to the wells of a 96-well protein precipitation plate resting on top of a 0.700 mL 96-well LoBind polypropylene plate. Double blank and carryover sample wells received 75 μL of acetonitrile:formic acid (1000:1, v:v) without internal standard. A 25 μL volume of each matrix sample was added to the plate wells containing internal standard. Fortified samples were vortexed at 700 rpm for 1 minute and centrifuged at 3000 rpm for 2 minutes at 4° C. The protein precipitation plate was discarded. A 50 μL volume of mobile phase A (acetonitrile:water:200 mM ammonium formate (90:5:5, v:v:v)) was added to the 96-well polypropylene collection plate which was covered with a silicone cap mat. Final samples were vortexed at 700 rpm for 2 minutes and analysis was accomplished by injecting a 2 μL sample onto an LC-MS/MS system. […]

HCT116 cells = assay: In vitro cell cycle arrest functional assay (propidium iodide, flow cytometry); assay type: cell-based; conditions: Homo sapiens, HCT-116, 24 h incubation, read-out: IC50 of dose responsive accumulation in G2/M
Protocol: Cell Incubation with MMAE and Compound 2 and Staining with Propidium Iodide
HCT116 cells were seeded in 6-well tissue culture plates at 500,000 cells per well in 2 mL of DMEM and incubated overnight in a 37° C., 5% CO2 incubator. 200 μL of dilutions of MMAE and Compound 2 which were made at 10× concentrations in DMEM+4% DMSO were added to appropriate wells of the 6-well plates and plates were incubated for 24 hours. After exposure of HCT116 cells to either MMAE or Compound 2, cells were harvested for propidium iodide staining and flow cytometry. Media was collected from each well and transferred into conical 15 mL centrifuge tubes to collect nonadherent cells. PBS (1 mL) was added to wash wells and was then transferred to the 15 mL tubes. Tryp-LE (1 mL) was added to each well and plates were incubated for 5 minutes in a 37° C., 5% CO2 incubator until the cells lifted off the well surface. A solution of DMEM+10% fetal bovine serum (1 mL) was added to each well. Wells were triturated and cells transferred to tubes. […] Cell counts and viability for each sample was assessed by trypan blue exclusion on a Bio-Rad TC20 cell counter. […]
An aliquot (1 mL) of each cell suspension was transferred into a deep-well polypropylene plate. […] Propidium iodide-stained cells were analyzed using a BD Acuri flow cytometer.

[3] = test system: HCT116 HER2 negative colorectal flank tumors; assay: Efficacy in a HCT116 colorectal xenograft model (Example E); assay type: in vivo, nude mice; conditions: IP QDx2
Protocol: Mice were administered intraperitoneal (IP) doses of vehicle, 0.25 mg/kg MMAE or 40 mg/kg Compound 1 (equivalent 7 mg/kg unconjugated MMAE).

In the case of CC[C@H](C)[C@@H]([C@@H](CC(=O)N1CCC[C@H]1[C@H](OC)[C@@H](C)C(=O)N[C@H](C)[C@@H](O)c1ccccc1)OC)N(C)C(=O)[C@@H](NC(=O)[C@H](C(C)C)N(C)C(=O)OCc1ccc(NC(=O)O[C@H]2CCCC[C@@H]2SSC[C@H](NC(=O)[C@H](Cc2c[nH]c3ccccc23)NC(=O)[C@H](CC(C)C)NC(=O)[C@H](CC(C)C)NC(=O)[C@H](CC(=O)O)NC(=O)[C@H](CC(C)C)NC(=O)[C@H](CC(C)C)NC(=O)[C@H](CC(C)C)NC(=O)[C@@H](NC(=O)[C@H](CC(=O)O)NC(=O)[C@@H](NC(=O)[C@@H]2CCCN2C(=O)[C@H](Cc2ccccc2)NC(=O)[C@H](CC(C)C)NC(=O)[C@H](CC(C)C)NC(=O)[C@H](CC(=O)O)NC(=O)[C@H](CC(C)C)NC(=O)[C@H](Cc2ccc(O)cc2)NC(=O)[C@H](C)NC(=O)[C@H](CCCNC(=N)N)NC(=O)[C@H](Cc2c[nH]c3ccccc23)NC(=O)[C@@H]2CCCN2C(=O)[C@H](CC(N)=O)NC(=O)[C@H](CCC(N)=O)NC(=O)[C@H](CC(=O)O)NC(=O)[C@H](CC(=O)O)NC(=O)[C@H](C)N)[C@@H](C)O)[C@@H](C)O)C(=O)NCC(N)=O)cc1)C(C)C [Compound 5], the “efficacy (mean tumor volume)” value [1] was “dose responsive efficacy”.

For CC[C@H](C)[C@@H]([C@@H](CC(=O)N1CCC[C@H]1[C@H](OC)[C@@H](C)C(=O)N[C@H](C)[C@@H](O)c1ccccc1)OC)N(C)C(=O)[C@@H](NC(=O)[C@@H](NC)C(C)C)C(C)C [MMAE, monomethyl auristatin E] (H-[NMeV]V[Dil][Dolaproine]-X1), the “distribution of unconjugated MMAE to tumor, muscle and bone marrow” value [2] was “indiscriminate distribution of MMAE across all tissues”, the pIC50 (HCT116 cells) was 8.59 and the “animals removed from the study by day” value ([3]; 0.25 mg/kg MMAE) was at most 6 days. The “change in body weight” value ([3]; 0.25 mg/kg MMAE or 40 mg/kg Compound 1 (7 mg/kg MMAE equivalent)) was “rapid decline in body weight”.
